The text below walks through data of ChEMBL document CHEMBL4706491, “Discovery of novel N-sulfonamide-tetrahydroquinolines as potent retinoic acid receptor-related orphan receptor γt inverse agonists for the treatment of autoimmune diseases” (Eur J Med Chem, 2020).

The nature of series [1]: in vitro. Particulars: CD-1, mouse, liver microsomes. (In general: Microsomes from liver hold many membrane-bound enzymes, among them those of drug oxidation.)
The nature of series [2]: in vitro. Particulars: CD-1, mouse, liver.
Series [3] in a line: Half life in CD-1 mouse liver microsomes at 1 uM measured up to 60 mins in presence of NADPH by LC-MS/MS analysis.
Series [4] deals with T1, Nuclear receptor ROR-gamma (Homo sapiens, UniProt P51449).
T1 sequence (P51449 whole entry): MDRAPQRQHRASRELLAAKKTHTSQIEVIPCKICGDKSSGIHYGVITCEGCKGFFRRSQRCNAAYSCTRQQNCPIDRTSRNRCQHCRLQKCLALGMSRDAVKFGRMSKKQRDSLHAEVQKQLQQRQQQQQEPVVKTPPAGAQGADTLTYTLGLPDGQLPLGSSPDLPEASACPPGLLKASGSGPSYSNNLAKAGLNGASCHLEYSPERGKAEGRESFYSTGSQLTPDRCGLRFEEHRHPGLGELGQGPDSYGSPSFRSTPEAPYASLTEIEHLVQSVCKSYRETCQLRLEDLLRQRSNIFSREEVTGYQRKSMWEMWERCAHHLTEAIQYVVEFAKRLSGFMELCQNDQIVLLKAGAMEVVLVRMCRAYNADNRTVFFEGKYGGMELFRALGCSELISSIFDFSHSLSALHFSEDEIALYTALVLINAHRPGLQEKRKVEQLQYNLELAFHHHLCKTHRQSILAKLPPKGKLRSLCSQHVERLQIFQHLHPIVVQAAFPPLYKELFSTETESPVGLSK

The target of series [5] is T1, Nuclear receptor ROR-gamma. Briefly: Agonist activity at APC-labeled RORgammat LBD (unknown origin) incubated for 1 hr in presence of europium-labeled co-activator SRC1 by FRET assay.

For orientation: microsomal CLint means a measure of how fast metabolising enzymes remove a compound, apart from limits set by blood flow. A higher microsomal CLint goes with faster metabolism. Broadly, the CLint scaled is the rate of metabolic loss divided by the concentration. Read a low CLint scaled as slow turnover. The term half-life denotes the time in which the quantity being followed falls by half. The term EC50 denotes the midpoint of the concentration-response curve.

Consider `CC(=O)N1CCN(c2ccc(CN(C3CCC3)S(=O)(=O)Cc3ccccc3)cc2)CC1`, for which the microsomal CLint at 1 h, 1 µM in the series “in vitro [1]” stood at 612 µL/min/mg. In addition, in the series “in vitro [2]”, the CLint scaled at 1 h, 1 µM came to 2420 mL/min/kg. The half-life at 1 h, 1 µM in series [3] is 2.3 min. Compound `CC(=O)N1CCN(c2ccc3c(c2)CCCN3S(=O)(=O)N(C)CCCc2ccccc2)CC1` gave an XC50 in series [4] of 7230 nM. As to `CC(=O)N1CCN(c2ccc3c(c2)CCCN3S(=O)(=O)N(C)Cc2cccc(F)c2)CC1`, the XC50 in series [4] amounted to 324 nM. For the compound `CC(=O)N1CCN(c2ccc3c(c2)CCCN3S(=O)(=O)CCc2ccccc2)CC1`, the XC50 in series [4] stood at 906 nM. `CC(=O)N1CCN(c2ccc3c(c2)CCCN3S(=O)(=O)N(C)CCc2ccccc2)CC1` had an XC50 in series [4] of 910 nM.

In turn, `CC(=O)N1CCN(c2ccc3c(c2)CCCN3S(=O)(=O)N(C)Cc2cccc(Cl)c2)CC1` showed an XC50 in series [4] of 104 nM. Still for that read-out and setting: then `CC(=O)N1CCN(c2ccc3c(c2)CCCN3S(=O)(=O)N(C)Cc2ccc(C(F)(F)F)cc2)CC1`, with 1550 nM; and `CC(=O)N1CCN(c2ccc3c(c2)CCCN3S(=O)(=O)N(C)Cc2ccccc2C)CC1`, with 143 nM. Still for that read-out and setting: in the case of `CC(=O)N1CCN(c2ccc3c(c2)CCCN3S(=O)(=O)N(C)Cc2cccc(C)c2)CC1` it was 768 nM.

Take `CC(=O)N1CCN(c2ccc3c(c2)CCCN3S(=O)(=O)N(C)Cc2ccccc2Cl)CC1`: in series [4], the XC50 is 86 nM.

In the case of `CC(=O)N1CCN(c2ccc3c(c2)CCCN3S(=O)(=O)c2ccccc2)CC1`, the EC50 in series [5] worked out at 4840 nM.
